# According to ChEMBL document CHEMBL3886569, “Substituted isoquinolines as CRTH2 receptor modulators” (2016):
# Molecular target: T1, Prostaglandin D2 receptor 2 (Homo sapiens, UniProt Q9Y5Y4)
# T1 sequence (Q9Y5Y4 whole entry): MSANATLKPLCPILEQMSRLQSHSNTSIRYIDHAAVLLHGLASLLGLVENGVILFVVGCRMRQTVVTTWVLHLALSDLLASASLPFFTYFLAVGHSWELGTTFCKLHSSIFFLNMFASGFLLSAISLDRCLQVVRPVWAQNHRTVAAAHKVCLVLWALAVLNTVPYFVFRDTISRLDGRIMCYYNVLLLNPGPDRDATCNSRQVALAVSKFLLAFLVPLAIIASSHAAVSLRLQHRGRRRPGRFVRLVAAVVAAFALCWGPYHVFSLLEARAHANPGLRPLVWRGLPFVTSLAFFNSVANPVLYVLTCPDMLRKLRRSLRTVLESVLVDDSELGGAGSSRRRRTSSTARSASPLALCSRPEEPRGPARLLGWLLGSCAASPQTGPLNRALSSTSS
# Experiment: Radioligand Binding Assay: Radioligand binding was performed using filtration or scintillation proximity assay (SPA) technology. SPA assays were done at room temperature in 10 mM HEPES pH 7.4, 1 mM EDTA containing 2 mM MnCl2 and 16 nM [3H]-PGD2 (PerkinElmer, Waltham, Mass.) (164 Ci mmol-1), in a final volume of 0.05 mL. Competing ligands were diluted in dimethylsulfoxide and added using very low volumes (500 nL). The reaction was initiated by the addition of a mixture of 3.52 ug of membrane protein prepared from a human embryonic kidney (HEK)-hCRTH2 cell line adhered to 140 ug of wheatgerm agglutinin SPA beads (PerkinElmer). Total and non-specific binding were determined in the absence and the presence of a CRTH2 antagonist, respectively. The reaction was routinely conducted for 60 minutes at room temperature followed by centrifugation for 5 minutes at 1000 RPM. The radioactivity was measured with a TopCountNXT (PerkinElmer). Filtration binding assays were done in a similar way with minor differences. The assay volume was 0.20 mL and competing ligands in dimethylsulfoxide were added in 2 uL. [3H]-PGD2 was used at 0.6 nM, and reactions were initiated by the addition of 10 ug of membrane protein. Reactions were terminated by filtration through GF/C filter plates (PerkinElmer) presoaked in 10 mM HEPES. After washing with buffer, plates were dried in a 50° C. oven for 1 h, scintillation cocktail was added and radioactivity was measured. Results determined using the SPA-based assay were similar to those from the filtration binding assay.
row,Ki [nM],Structure (SMILES)
1,21.5,O=C(O)CCCCc1cc2cc(-c3noc(C4Cc5ccccc5C4)n3)ccc2c(=O)n1-c1ccc(F)cc1
2,10.9,O=C(CCCCc1cc2cc(C(=O)N[C@@H]3CCCc4cc(F)ccc43)ccc2c(=O)n1-c1ccc(F)cc1)NS(=O)(=O)C1CC1
3,25.4,CC1(c2nc3ccc(F)cc3o2)CC(c2ccc3c(=O)n(-c4ccc(F)cc4)c(CCCCC(=O)O)cc3c2)=NO1 (stereo not given)
4,7.79,O=C(O)CCCCc1cc2cc(-c3noc(Cc4ccc(F)cc4)n3)ccc2c(=O)n1-c1ccc(F)cc1
5,79.1,CC1(c2nc3ccc(F)cc3o2)CC(c2ccc3c(=O)n(-c4ccc(F)cc4)c(CCCCC(=O)O)c(Cl)c3c2)=NO1 (stereo not given)
